In PubChem BioAssay (NCI):
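Interpolation was linear, between the two tested concentrations surrounding the appropriate level; five concentrations were tested over 48 hours in 96-well plates. Here, GI50 denotes the concentration required for 50% inhibition of growth. TGI: concentration producing complete growth inhibition.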

Tests used:
Assay in all cases: growth of human tumour cells (NCI), 48 h
SW-620 colon = tested on: SW-620 colon
OVCAR-4 ovarian = tested on: OVCAR-4 ovarian
NCI-H460 lung = tested on: NCI-H460 lung
SK-MEL-28 melanoma = tested on: SK-MEL-28 melanoma
RXF 393 renal = tested on: RXF 393 renal
HOP-92 NSCLC = tested on: HOP-92 NSCLC
CAKI-1 renal = tested on: CAKI-1 renal
MDA-MB-231 breast = tested on: MDA-MB-231 breast
M14 melanoma = tested on: M14 melanoma
CCRF-CEM leukemia = tested on: CCRF-CEM leukemia
A549 NSCLC = tested on: A549 NSCLC
HS 578T breast = tested on: HS 578T breast
SK-MEL-2 melanoma = tested on: SK-MEL-2 melanoma
OVCAR-3 ovarian = tested on: OVCAR-3 ovarian
SN12C renal = tested on: SN12C renal
EKVX NSCLC = tested on: EKVX NSCLC
DU-145 prostate = tested on: DU-145 prostate
HL-60(TB) leukemia = tested on: HL-60(TB) leukemia
SNB-19 CNS = tested on: SNB-19 CNS
RPMI-8226 leukemia = tested on: RPMI-8226 leukemia
NCI-H522 lung = tested on: NCI-H522 lung
SF-295 CNS = tested on: SF-295 CNS
LOX IMVI melanoma = tested on: LOX IMVI melanoma
BT-549 breast = tested on: BT-549 breast
786-0 renal = tested on: 786-0 renal
ACHN renal = tested on: ACHN renal
HOP-62 NSCLC = tested on: HOP-62 NSCLC

CCN(CC)c1ccc(NC2=C(Cl)C(=O)c3nc(C)ccc3C2=O)cc1
GI50 (SW-620 colon): 2.18 µM
TGI (SW-620 colon): 4.74 µM
GI50 (OVCAR-4 ovarian): 1.82 µM
TGI (OVCAR-4 ovarian): 3.52 µM
GI50 (NCI-H460 lung): 5.38 µM
TGI (NCI-H460 lung): 23.2 µM
GI50 (SK-MEL-28 melanoma): 2.04 µM
TGI (SK-MEL-28 melanoma): 3.68 µM
GI50 (RXF 393 renal): 1.63 µM
TGI (RXF 393 renal): 3.02 µM
GI50 (HOP-92 NSCLC): 1.71 µM
TGI (HOP-92 NSCLC): 3.41 µM
GI50 (CAKI-1 renal): 1.61 µM
TGI (CAKI-1 renal): 3.16 µM
GI50 (MDA-MB-231 breast): 1.89 µM
TGI (MDA-MB-231 breast): 3.69 µM
GI50 (M14 melanoma): 1.73 µM
TGI (M14 melanoma): 3.3 µM
GI50 (CCRF-CEM leukemia): 2.27 µM
TGI (CCRF-CEM leukemia): 6.43 µM
GI50 (A549 NSCLC): 2.61 µM
TGI (A549 NSCLC): 7.05 µM
GI50 (HS 578T breast): 2.38 µM
TGI (HS 578T breast): 6.37 µM
GI50 (SK-MEL-2 melanoma): 1.85 µM
TGI (SK-MEL-2 melanoma): 3.48 µM
GI50 (OVCAR-3 ovarian): 1.81 µM
TGI (OVCAR-3 ovarian): 3.3 µM
GI50 (SN12C renal): 1.95 µM
TGI (SN12C renal): 4.35 µM
GI50 (EKVX NSCLC): 1.59 µM
TGI (EKVX NSCLC): 3.33 µM
GI50 (DU-145 prostate): 1.93 µM
TGI (DU-145 prostate): 3.51 µM
GI50 (HL-60(TB) leukemia): 1.55 µM
TGI (HL-60(TB) leukemia): 4.1 µM
GI50 (SNB-19 CNS): 1.77 µM
TGI (SNB-19 CNS): 3.35 µM
GI50 (RPMI-8226 leukemia): 2.52 µM
TGI (RPMI-8226 leukemia): 6.29 µM
GI50 (NCI-H522 lung): 1.81 µM
TGI (NCI-H522 lung): 3.92 µM
GI50 (SF-295 CNS): 1.97 µM
TGI (SF-295 CNS): 4.23 µM
GI50 (LOX IMVI melanoma): 1.67 µM
TGI (LOX IMVI melanoma): 3.5 µM
GI50 (BT-549 breast): 1.58 µM
TGI (BT-549 breast): 2.96 µM
GI50 (786-0 renal): 1.87 µM
TGI (786-0 renal): 3.55 µM
GI50 (ACHN renal): 1.93 µM
TGI (ACHN renal): 3.43 µM
GI50 (HOP-62 NSCLC): 3.21 µM
TGI (HOP-62 NSCLC): 12.2 µM
